# Test results published in the supplement of paper PMC12592484.
# Tests used:
# Test in all cases: drug sensitivity score (DSS2, normalised partial AUC of dose-response, 72 h CellTiter-Glo viability) (DSS (dimensionless)); higher = more sensitive (stronger growth inhibition / cytotoxicity); extreme values may be limits of the assay
# 22Rv1 = tested on: 22Rv1
# Procedure, shortened: (§1)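 Viability of low-passage primary prostate cancer-associated fibroblasts, PF179T, WPMY-1, LNCaP and 22Rv1 cells was read by CellTiter-Glo 2.0 luminescence 72 h after seeding onto compounds pre-dispensed in 384-well plates at five doses over a 10,000-fold range. Readings were scaled between vehicle and positive-control wells. Sensitivity is reported as a drug sensitivity score from BREEZE, namely a partial area under the fitted logistic curve divided by the log of its upper asymptote, where higher means more sensitive.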
# CAF#1 = tested on: CAF#1 (primary prostate cancer-associated fibroblasts of myCAF-like type)
# Procedure, shortened: as §1
# CAF#2 = tested on: CAF#2 (primary prostate cancer-associated fibroblasts of iCAF-like type)
# Procedure, shortened: as §1
# CAF#3 = tested on: CAF#3 (primary prostate cancer-associated fibroblasts of myCAF-like type)
# Procedure, shortened: as §1
# CAF#4 = tested on: CAF#4 (primary prostate cancer-associated fibroblasts of iCAF-like type)
# Procedure, shortened: as §1
# CAF#5 = tested on: CAF#5 (primary prostate cancer-associated fibroblasts of myCAF-like type)
# Procedure, shortened: as §1
# CAF#6 = tested on: CAF#6 (primary prostate cancer-associated fibroblasts of iCAF-like type)
# Procedure, shortened: as §1
# CAF#7 = tested on: CAF#7 (primary prostate cancer-associated fibroblasts of myCAF-like type)
# Procedure, shortened: as §1
# LNCAP = tested on: LNCAP
# Procedure, shortened: as §1
# PF179T = tested on: PF179T
# Procedure, shortened: as §1
# WPMY-1 = tested on: WPMY-1
# Procedure, shortened: as §1
SMILES,drug sensitivity score (22Rv1),drug sensitivity score (CAF#1),drug sensitivity score (CAF#2),drug sensitivity score (CAF#3),drug sensitivity score (CAF#4),drug sensitivity score (CAF#5),drug sensitivity score (CAF#6),drug sensitivity score (CAF#7),drug sensitivity score (LNCAP),drug sensitivity score (PF179T),drug sensitivity score (WPMY-1)
C=C1C[C@@H]2CC[C@@]34C[C@H]5O[C@H]6[C@@H](O3)[C@H]3O[C@H](CC[C@@H]3O[C@H]6[C@H]5O4)CC(=O)C[C@@H]3[C@@H](OC)[C@@H](C[C@H](O)CN)O[C@H]3C[C@H]3O[C@@H](CC[C@@H]1O2)C[C@@H](C)C3=C [Eribulin] (tested concentration range 0.1-1000 nM),24,12.3,18.3,11.8,9.6,13.7,15.3,22.1,36.5,19.4,28.9
C#Cc1cccc(Nc2ncnc3cc(OCCOC)c(OCCOC)cc23)c1 [Erlotinib] (tested concentration range 1-10000 nM),1.4,3.7,3.7,1.2,4.8,4.8,0.2,1.1,4,1.4,0.5
COc1cc([C@@H]2c3cc4c(cc3[C@@H](O[C@@H]3O[C@@H]5CO[C@@H](C)O[C@H]5[C@H](O)[C@H]3O)[C@H]3COC(=O)[C@H]23)OCO4)cc(OC)c1O [Etoposide] (tested concentration range 1-10000 nM),10.1,2.3,5.9,2.6,0.9,3,2.8,5.1,9.9,5.8,9
CO[C@H]1C[C@@H]2CC[C@@H](C)[C@@](O)(O2)C(=O)C(=O)N2CCCC[C@H]2C(=O)O[C@H]([C@H](C)C[C@@H]2CC[C@@H](OCCO)[C@H](OC)C2)CC(=O)[C@H](C)/C=C(\C)[C@@H](O)[C@@H](OC)C(=O)[C@H](C)C[C@H](C)/C=C/C=C/C=C/1C [Everolimus] (tested concentration range 0-100 nM),11.6,11.5,8.2,7.2,6.1,9.7,8.2,10.8,14.1,6.3,5.4
C=C1C[C@@H]2[C@H](CC[C@]3(C)C(=O)CC[C@@H]23)[C@@]2(C)C=CC(=O)C=C12 [Exemestane] (tested concentration range 1-10000 nM),0,0,0,0.7,0,0,0,0,2.5,0,0
CCn1c(=O)c(-c2ccc(Cl)cc2Cl)cc2cnc(Nc3ccc(N4CCNCC4)c(F)c3)nc21 [FRAX486] (tested concentration range 0.5-5000 nM),1.1,12.2,14.7,9.1,9.7,11.4,9,8.9,6.3,12.4,8.6
Cc1cnc(Nc2ccc(OCCN3CCCC3)cc2)nc1Nc1cccc(S(=O)(=O)NC(C)(C)C)c1 [Fedratinib] (tested concentration range 1-10000 nM),9.5,3.9,5,9.7,4.6,5.2,8,9.6,8,7.7,7.2
CON(C)C(=O)N1N=C(c2cc(F)ccc2F)S[C@@]1(CCCN)c1ccccc1 [Filanesib] (tested concentration range 0.1-1000 nM),21.3,0.2,17.7,3.2,6,3.9,2.6,2.6,29.5,13,22
O=C(Nc1nc2cccc(-c3ccc(CN4CCS(=O)(=O)CC4)cc3)n2n1)C1CC1 [Filgotinib] (tested concentration range 1-10000 nM),2.5,2.1,2.3,1.7,0,1.9,0.1,0.6,3.8,0.9,2.1
CC(C)(C)NC(=O)[C@H]1CC[C@H]2[C@@H]3CC[C@H]4NC(=O)C=C[C@]4(C)[C@H]3CC[C@]12C [Finasteride] (tested concentration range 1-10000 nM),0,0,0,0.5,0,0,0,0,2.8,0,0
CCCCCCCCc1ccc(CCC(N)(CO)CO)cc1 [Fingolimod] (tested concentration range 1-10000 nM),7,5.4,5.3,5.2,6,6.8,5.9,6.3,7.9,5.1,6.7
O=c1[nH]c(=O)n([C@H]2C[C@H](O)[C@@H](CO)O2)cc1F [Floxuridine] (tested concentration range 1-10000 nM),6,1.8,4.3,1.1,2,1.4,2.3,3,15.2,5.1,24
Nc1nc(F)nc2c1ncn2[C@@H]1O[C@H](CO)[C@@H](O)[C@@H]1O [Fludarabine] (tested concentration range 1-10000 nM),0,1.5,0.7,0,0.3,2.2,0.1,2.1,5.5,4.3,0.7
O=c1[nH]cc(F)c(=O)[nH]1 [Fluorouracil] (tested concentration range 1-10000 nM),2.4,2.6,3.6,0.5,2,2.9,1.6,2.1,4.6,3.4,0.2
CC(C)C(=O)Nc1ccc([N+](=O)[O-])c(C(F)(F)F)c1 [Flutamide] (tested concentration range 1-10000 nM),0.6,0,2.8,0,4.8,0.5,0,0,1.1,0,0
COc1cc2c(Oc3ccc(NC(=O)C4(C(=O)Nc5ccc(F)cc5)CC4)cc3F)ccnc2cc1OCCCN1CCOCC1 [Foretinib] (tested concentration range 0.1-1000 nM),3.4,6.8,10.3,7.9,6.9,6.7,5.2,7,5.6,6.8,7.9
COc1cc(Nc2ncc(F)c(Nc3ccc4c(n3)N(COP(=O)(O)O)C(=O)C(C)(C)O4)n2)cc(OC)c1OC [Fostamatinib] (tested concentration range 0.2-2500 nM),0,7.7,8.4,6.6,5.3,7.2,5.6,7,4.4,7.3,4.4
C[C@]12CC[C@@H]3c4ccc(O)cc4C[C@@H](CCCCCCCCC[S+]([O-])CCCC(F)(F)C(F)(F)F)[C@H]3[C@@H]1CC[C@@H]2O (some centres undefined) [Fulvestrant] (tested concentration range 0.1-1000 nM),0,0,0,0.2,0,0,0.1,0,0.3,0,0
CNc1nc(Nc2cn(C(C)(C)C#N)nc2C)ncc1C(F)(F)F [GNE-0877] (tested concentration range 0.1-1000 nM),0,0,0,0,0,0,0,0,0,0,0
CCCOc1ccn2c(C(C)=O)cc(-c3ccccc3S(C)(=O)=O)c2c1 [GSK2801] (tested concentration range 1-10000 nM),0,0,0,0,0,0.4,0,0,1.2,0,0
CCOC(=O)CCNc1cc(N2CCc3ccccc3CC2)nc(-c2ccccn2)n1 [GSK-J4] (tested concentration range 10-100000 nM),2.1,2.1,4.3,0.6,3.7,0.3,0,0,3.5,0.3,0.5
Cc1cccc(-c2nn3c(c2-c2ccnc4ccc(C(N)=O)cc24)CCC3)n1 [Galunisertib] (tested concentration range 0.1-1000 nM),0,0,0,0.1,0,0,0,0,0,0,0
CC(C)c1cc(-c2n[nH]c(=O)n2-c2ccc3c(ccn3C)c2)c(O)cc1O [Ganetespib] (tested concentration range 0.1-1000 nM),23.9,24.1,20.3,16.9,18.3,22.3,14.3,15.9,21.9,20.9,24.3
CN(C)C1CCN(C(=O)c2ccc(NC(=O)Nc3ccc(-c4nc(N5CCOCC5)nc(N5CCOCC5)n4)cc3)cc2)CC1 [Gedatolisib] (tested concentration range 0.1-1000 nM),22.5,5.9,5.1,8.9,5.6,9.8,10.9,13.1,19.8,8.1,14.8
